According to patent US9409880B2, “Modulators of TLR3/dsRNA complex and uses thereof” (The Regents of the University of Colorado, a body corporate, priority 2011, dated 2016):

Columns and labels:
TLR7 = biological target: T1, TLR7 (Mus musculus, UniProt P58681); test: RAW264.7 cell nitric oxide TLR selectivity assay (R848); format: cell-based; conditions: 27 μM
T1 construct: endogenous in cells; host or cells: RAW 264.7
T1 sequence (P58681 27-1050): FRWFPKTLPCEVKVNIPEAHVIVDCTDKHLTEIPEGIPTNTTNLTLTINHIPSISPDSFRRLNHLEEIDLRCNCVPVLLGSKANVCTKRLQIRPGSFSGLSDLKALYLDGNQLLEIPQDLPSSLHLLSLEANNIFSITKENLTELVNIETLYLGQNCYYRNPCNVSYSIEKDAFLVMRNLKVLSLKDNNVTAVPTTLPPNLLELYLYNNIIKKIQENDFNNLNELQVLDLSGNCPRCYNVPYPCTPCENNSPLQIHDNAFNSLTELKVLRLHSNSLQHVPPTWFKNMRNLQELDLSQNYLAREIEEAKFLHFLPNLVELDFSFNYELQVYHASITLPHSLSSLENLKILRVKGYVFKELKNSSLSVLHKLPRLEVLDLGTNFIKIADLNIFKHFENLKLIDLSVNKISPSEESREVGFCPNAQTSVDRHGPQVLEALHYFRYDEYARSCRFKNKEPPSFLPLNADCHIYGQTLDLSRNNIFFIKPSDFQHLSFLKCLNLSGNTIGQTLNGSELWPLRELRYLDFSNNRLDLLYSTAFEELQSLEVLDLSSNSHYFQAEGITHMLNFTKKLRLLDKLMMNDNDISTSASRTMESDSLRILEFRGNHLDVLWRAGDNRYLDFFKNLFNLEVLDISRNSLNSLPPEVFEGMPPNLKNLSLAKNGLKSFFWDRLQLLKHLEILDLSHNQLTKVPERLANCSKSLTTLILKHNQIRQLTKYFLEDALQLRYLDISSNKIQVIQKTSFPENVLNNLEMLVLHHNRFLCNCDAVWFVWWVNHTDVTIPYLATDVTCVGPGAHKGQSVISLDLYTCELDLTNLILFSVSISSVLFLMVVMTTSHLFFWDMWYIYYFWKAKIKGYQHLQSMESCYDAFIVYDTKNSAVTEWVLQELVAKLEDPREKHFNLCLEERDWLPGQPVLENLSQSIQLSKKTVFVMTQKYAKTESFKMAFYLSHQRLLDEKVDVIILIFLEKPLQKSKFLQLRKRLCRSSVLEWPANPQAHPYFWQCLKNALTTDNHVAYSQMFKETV

[1] = test system: XMRV-induced IP-10/CXCL10 production; test: XMRV-induced IP-10 mRNA (RT-PCR) in LNCaP cells; format: cell-based, human
[2] = test system: poly IC-induced impaired re-endothelialization; test: Vascular repair: re-endothelialization after carotid artery denudation; format: in vivo, Mice; conditions: 27 μg i.p. every 48 hours; 100 μg poly IC i.v.; Evan's blue staining
Description: Mice were subjected to a 4 mm long electric denudation of the left common carotid artery. These C57B1/6J littermates were then treated with 100 μg of poly IC or vehicle (NaCl 0.9%) via i.v. injection every 48 hours for five days. Half of the mice in each group were also treated with 27 μg compound 4a or vehicle (DMSO) via i.p. injection every 48 hours. The mice were then sacrificed and aortic arch including both common carotid arteries excised. The remaining endothelial lesion was visualized using Evan's blue staining.

For `O=C(N[C@H](Cc1ccccc1)C(=O)O)c1sc2cc(F)ccc2c1Cl` [Compound 4a, (R)-2-(3-chloro-6-fluorobenzo[b]thiophene-2-carboxamido)-3-phenylpropanoic acid], the “effect on TLR7 signaling” value (TLR7) was “without significantly affecting other TLRs”, the “XMRV-induced IP-10 production” value ([1]; 50 μM, RT-PCR of IP-10 mRNA) was “inhibits XMRV-induced IP-10 production” and the “XMRV-induced IP-10/CXCL10 production” value ([1]; 10 and 25 μM, RT-PCR) was “inhibition of XMRV-induced IP-10/CXCL10 production”. The “poly IC-induced impaired re-endothelialization” value [2] was “significantly improves poly IC-induced impaired re-endothelialization”.
